From US7700347B2, “Methods and apparatuses for conducting assays in animals” (The Forsyth Institute, priority 2005, dated 2010)

Tested on: planaria
Assay: planaria movement (worm mobility) after drug treatment, automated tracking
Type: in vivo, Dugesia tigrinia
Settings: 24 hours of drug treatment, movement observed for three hours, compared to control carrier (water+DMSO), statistically significant
Description: The following methods were used for Examples 5-8. The species of planaria used in these studies was Dugesia tigrinia, obtained from Ward's Natural Science. The planaria colonies were stored in natural spring water at 22.5° C., and kept on a 9 hour light/15 hour dark cycle. The colonies were fed once per week with organic beef liver. Their water was changed several hours after feeding and 3 days following each feeding. Worms were not fed (e.g., they were starved) the week they were used in an experiment because starved worms were less likely to fission during the experiment.
For the duration of an experiment, individual worms were placed in a reaction well and a plurality of reaction wells were arrayed, as shown in FIG. 10. The worms were not fed during the experiment. Each reaction well included electrodes made of a 90%/10% platinum/iridium alloy for delivering current. […]
FIG. 16 summarizes results depicting the effects of two agents on planaria behavior. Specifically, we assessed the effects of two psychiatric drugs that modulate serotonergic signaling, p-chlorophenylalanine (PCPA) and reserpine, on worm mobility.
Briefly, planaria were cultured in the presence of control carrier (water+DMSO), 625 micrograms/mL of PCPA, or 21 micrograms/mL of reserpine. […] The speed, position, and distance traveled of individual worms were monitored following drug treatment and compared to controls. […]

SMILES	effect on planaria movement (worm movement, average speed) (625 micrograms/mL in culture)	effect on planaria movement (worm movement, average speed) (21 micrograms/mL in culture)
N[C@@H](Cc1ccc(Cl)cc1)C(=O)O (racemic) [PCPA, p-chlorophenylalanine]	increased planaria movement	–
COC(=O)[C@H]1[C@H]2C[C@@H]3c4[nH]c5cc(OC)ccc5c4CCN3C[C@H]2C[C@@H](OC(=O)c2cc(OC)c(OC)c(OC)c2)[C@@H]1OC [reserpine]	–	decreased planaria movement
